Results taken from patent publication US8299073B2, “P38 MAP kinase inhibitors” (Respivert Ltd., priority 2008, dated 2012).
One block for each molecule: values may come before it.

Experiments:
[1] = tested on: LPS-induced TNFα release in differentiated U937 cells; test: LPS-induced TNF alpha release in differentiated U937 cells; format: cell-based; conditions: Homo sapiens; read-out: R-EC50 values d-U937 cells
[2] = target: T1, p38 MAPK alpha (MAPK14: Invitrogen) (Homo sapiens, UniProt Q16539); test: Enzyme inhibition assay (FRET, Z-LYTE), p38 MAPK alpha, via activation of MAPKAP-K2; format: biochemical; conditions: read-out: IC50 values p38α enzyme
T1 construct: purchased Invitrogen
T1 sequence (Q16539 whole entry): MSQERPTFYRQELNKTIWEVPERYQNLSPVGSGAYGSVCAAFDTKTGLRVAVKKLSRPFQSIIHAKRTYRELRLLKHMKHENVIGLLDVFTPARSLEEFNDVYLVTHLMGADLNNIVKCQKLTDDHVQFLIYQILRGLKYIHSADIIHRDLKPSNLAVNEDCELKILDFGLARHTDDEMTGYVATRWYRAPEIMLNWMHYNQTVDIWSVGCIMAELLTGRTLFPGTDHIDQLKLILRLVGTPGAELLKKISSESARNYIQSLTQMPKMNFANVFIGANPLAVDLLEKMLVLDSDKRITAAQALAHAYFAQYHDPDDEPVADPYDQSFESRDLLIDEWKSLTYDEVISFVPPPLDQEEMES

[3] = tested on: Differentiated U937 cells; test: MTT assay (loss of cell viability); format: cell-based, human; conditions: loss of cell viability, 10 ug/ml
[4] = tested on: LPS-induced TNFα release in THP-1 cells; test: LPS-induced TNF alpha release in THP-1 cells; format: cell-based; conditions: Homo sapiens, THP-1; LPS-induced TNFα release; read-out: IC50 values THP-1 cells
[5] = target: T2, recombinant, phosphorylated p38 MAPK gamma (MAPK12:Millipore) (Homo sapiens, UniProt P53778); test: Enzyme inhibition assay (FRET, Z-LYTE), p38 MAPK gamma; format: biochemical; conditions: read-out: IC50 values P38γ enzyme
T2 construct: purchased Millipore
T2 sequence (P53778 1-367): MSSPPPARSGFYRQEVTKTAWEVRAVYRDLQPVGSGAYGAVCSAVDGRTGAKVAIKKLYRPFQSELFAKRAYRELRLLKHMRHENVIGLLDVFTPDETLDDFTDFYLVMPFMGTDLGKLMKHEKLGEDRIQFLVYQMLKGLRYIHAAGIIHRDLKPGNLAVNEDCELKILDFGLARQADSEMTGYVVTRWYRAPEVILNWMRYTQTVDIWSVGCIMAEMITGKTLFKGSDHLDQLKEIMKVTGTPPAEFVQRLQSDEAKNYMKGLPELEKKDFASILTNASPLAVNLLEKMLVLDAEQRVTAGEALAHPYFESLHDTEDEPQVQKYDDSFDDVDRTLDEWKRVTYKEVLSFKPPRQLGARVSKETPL

[6] = tested on: neutrophil and macrophage accumulation into airways; test: Cigarette smoke model; format: in vivo, A/J mice; conditions: 50 μg/ml (35 μl, bid, in); cigarette smoke exposed mice
Protocol: A/J mice (males, 5 weeks old) were exposed to cigarette smoke (4% cigarette smoke, diluted with compressed air) for 30 min/day for 11 days using a Tobacco Smoke Inhalation Experiment System for small animals (Model SIS-CS; Sibata Scientific Technology, Tokyo, Japan). Test substances were given intra-nasally (35 μl of solution in 50% DMSO/PBS) and therapeutically twice daily for 3 days after the final cigarette smoke exposure. Twelve hours after the last dosing, animals were anesthetized, the trachea cannulated and bronchoalveolar lavage fluid (BALF) was collected. […] The results are shown in FIG. 3 for activated alveolar macrophages and in FIG. 4 for neutrophils. Data for cell numbers are shown as the mean±SEM. The cigarette smoke model used for this study is reported as a corticosteroid refractory system, ([…]. et al., (2008); J. Pharmacol. Exp.

[7] = tested on: ovalbumin-mediated lung function changes (sGaw); test: Ovalbumin challenge/parainfluenza infection model; format: in vivo, Dunkin-Hartley guinea-pigs; conditions: nebulised, 1.5 mg per day; sensitized animals treated with PIV3 medium

Structure (SMILES): COCC(=O)Nc1cc(OCCc2ccc(NC(=O)Nc3cc(C(C)(C)C)nn3-c3ccc(C)cc3)c3ccccc23)ccn1 [Example 43, N-(4-(2-(4-(3-(3-tert-butyl-1-p-tolyl-1H-pyrazol-5-yl)ureido)naphthalen-1-yl)ethoxy)pyridin-2-yl)-2-methoxyacetamide]
EC50 [1]: < 500 nM | IC50 [2]: < 500 nM | MTT 4 hr [3]: − (− <30%) | MTT 24 hr [3]: − (− <30%) | IC50 [4]: < 500 nM | IC50 [5]: < 5000 nM

Structure (SMILES): COCC(=O)Nc1cc(CC(C)Oc2ccc(NC(=O)Nc3cc(C(C)(C)C)nn3-c3ccc(C)cc3)c3ccccc23)ccn1 (centres unmarked) [Example 46, N-(4-(2-(4-(3-(3-tert-Butyl-1-p-tolyl-1H-pyrazol-5-yl)ureido)naphthalen-1-yloxy)propyl)pyridin-2-yl)-2-methoxyacetamide]
EC50 [1]: < 500 nM | IC50 [2]: < 500 nM | MTT 4 hr [3]: − (− <30%) | MTT 24 hr [3]: − (− <30%) | IC50 [4]: < 500 nM | IC50 [5]: > 5000 nM

Structure (SMILES): COCC(=O)Nc1cc(C(C)COc2ccc(NC(=O)Nc3cc(C(C)(C)C)nn3-c3ccc(C)cc3)c3ccccc23)ccn1 (centres unmarked) [Example 47, N-(4-(1-(4-(3-(3-tert-Butyl-1-p-tolyl-1H-pyrazol-5-yl)ureido)naphthalen-1-yloxy)propan-2-yl)pyridin-2-yl)-2-methoxyacetamide]
EC50 [1]: < 10 nM | IC50 [2]: < 500 nM | MTT 4 hr [3]: − (− <30%) | MTT 24 hr [3]: − (− <30%) | IC50 [4]: < 10 nM | IC50 [5]: > 5000 nM

Structure (SMILES): COCC(=O)Nc1cc(C(C)(C)COc2ccc(NC(=O)Nc3cc(C(C)(C)C)nn3-c3ccc(C)cc3)c3ccccc23)ccn1 [Example 48, N-(4-(1-(4-(3-(3-tert-Butyl-1-p-tolyl-1-pyrazol-5-yl)ureido)naphthalen-1-yloxy)-2-methylpropan-2-yl)pyridin-2-yl)-2-methoxyacetamide]
EC50 [1]: < 500 nM | IC50 [2]: < 500 nM | MTT 4 hr [3]: − (− <30%) | MTT 24 hr [3]: − (− <30%) | IC50 [4]: < 500 nM | IC50 [5]: > 5000 nM

EC50 [1]: < 10 nM | IC50 [2]: < 10 nM | IC50 [4]: < 500 nM | IC50 [5]: < 500 nM
Structure (SMILES): COCC(=O)Nc1cc(COc2ccc(NC(=O)Nc3cc(C(C)(C)C)nn3-c3ccc(CO)cc3)c3ccccc23)ccn1 [Example 49, N-(4-((4-(3-(3-tert-Butyl-1-(4-(hydroxymethyl)phenyl)-1H-pyrazol-5-yl)ureido)naphthalen-1-yloxy)methyl)pyridin-2-yl)-2-methoxyacetamide]
MTT 4 hr [3]: − (− <30%) | MTT 24 hr [3]: + (+ >30% at 10 ug/ml)

Structure (SMILES): COCC(=O)Nc1nccc(COc2ccc(NC(=O)Nc3cc(C(C)(C)C)nn3-c3ccc(C)cc3)c3ccccc23)n1 [Example 50, N-(4-((4-(3-(3-tert-Butyl-1-p-tolyl-1H-pyrazol-5-yl)ureido)naphthalen-1-yloxy)methyl)pyrimidin-2-yl)-2-methoxyacetamide]
EC50 [1]: < 10 nM | IC50 [2]: < 10 nM | MTT 4 hr [3]: − (− <30%) | MTT 24 hr [3]: − (− <30%) | IC50 [4]: < 500 nM | IC50 [5]: > 5000 nM

Structure (SMILES): CCC(=O)O[C@]1(C(=O)SCF)[C@H](C)C[C@H]2[C@@H]3C[C@H](F)C4=CC(=O)C=C[C@]4(C)[C@@]3(F)[C@@H](O)C[C@@]21C [fluticasone propionate]
inhibition of neutrophil or macrophage accumulation into airways [6]: did not inhibit | effect on ovalbumin-mediated lung function changes [7]: inhibited
